These results are taken from ChEMBL document CHEMBL2311484, “Synthesis and biological evaluation of a new series of phenothiazine-containing protein farnesyltransferase inhibitors” (Eur J Med Chem, 2013).

Broadly, the IC50 is the concentration that inhibits the measured activity by half.

The test addresses Protein farnesyltransferase (Homo sapiens, UniProt P49354+P49356). The test is described as follows: Inhibition of human recombinant FTase activity using dansyl-GCVLS-peptide. The format is protein-complex assay.
With `N#CC(C#N)=C/C=C1\C=CC=CN1CC(=O)N1c2ccccc2Sc2ccccc21`, the IC50 was 1.2 µM. For `CN(C)c1cc[n+](C(C=C(C#N)C#N)C(=O)N2c3ccccc3Sc3ccccc32)cc1` (stereo not drawn), the IC50 stood at 4.67 µM. The result for `Cc1cc(C)c[n+](C(C=C(C#N)C#N)C(=O)N2c3ccccc3Sc3ccccc32)c1` (stereo not drawn) reads 6.36 µM; that for `COc1cc[n+](C(C=C(C#N)C#N)C(=O)N2c3ccccc3Sc3ccccc32)cc1` (stereo not drawn), 10.3 µM. `CCOC(=O)/C(C#N)=C\C=C1/C=CC=CN1CC(=O)N1c2ccccc2Sc2ccccc21`: the IC50 came out at 1.07 µM.

As for `CCOC(=O)/C(C#N)=C/C(C(=O)N1c2ccccc2Sc2ccccc21)[n+]1ccccc1` (stereo not drawn), the IC50 came out at 15 µM. As for `CCOC(=O)/C(C#N)=C/C(C(=O)N1c2ccccc2Sc2ccccc21)[n+]1ccc(N(C)C)cc1` (stereo not drawn), the IC50 was determined as 5.33 µM. The result for `Cc1ccc[n+](C(C=C(C#N)C#N)C(=O)N2c3ccccc3Sc3ccccc32)c1` (stereo not drawn) reads 11 µM; that for `CCOC(=O)/C(C#N)=C/C(C(=O)N1c2ccccc2Sc2ccccc21)[n+]1cc(C)cc(C)c1` (stereo not drawn), 7.27 µM. In the case of `CCOC(=O)/C(C#N)=C/C(C(=O)N1c2ccccc2Sc2ccccc21)[n+]1ccc(OC)cc1` (stereo not drawn) it was 13.7 µM. As to `CCOC(=O)/C(C#N)=C\C=C1C=CN(CC(=O)N(CC)CC)C=C1`, the IC50 was found to be 43.1 µM.

Regarding `CCOC(=O)/C(C#N)=C\C=C1C=CN(CC(=O)N2c3ccccc3Sc3ccccc32)C=C1`, the IC50 was found to be 0.63 µM. The result for `N#CC(C#N)=CC(C(=O)N1c2ccccc2Sc2ccccc21)[n+]1ccccc1` (stereo not drawn) reads 13.1 µM; that for `CN(C)c1cc[n+](C(C=C(C#N)C#N)C(=O)N2c3ccccc3Sc3ccc(Cl)cc32)cc1` (stereo not drawn), 3.18 µM. `N#CC(C#N)=CC=C1C=CN(CC(=O)N2c3ccccc3Sc3ccccc32)C=C1`: the IC50 stood at 0.65 µM. The result for `CCOC(=O)/C(C#N)=C/C(C(=O)N1c2ccccc2Sc2ccc(Cl)cc21)[n+]1ccc(N(C)C)cc1` (stereo not drawn) reads 4.92 µM.

`CCOC(=O)/C(C#N)=C/C(C(=O)N1c2ccccc2Sc2ccccc21)[n+]1cccc(C)c1` (stereo not drawn): the IC50 amounted to 7.01 µM. Regarding `CN(C)c1cc[n+](C(/C=C/C(=O)O)C(=O)N2c3ccccc3Sc3ccccc32)cc1` (stereo not drawn), the IC50 is 86.5 µM.
